Entries after “also recorded” stand apart in the source; their conditions may differ. Like-named read-outs stand apart in the source and are kept apart here.
Legend:
Parkinson's disease = test: Oral squalamine in Parkinson's disease with constipation, single subject; format: in vivo, human
Procedure: A person, in otherwise good health, presented with Parkinson's disease of about 5 yrs duration. They were severely constipated and suffered from frequent episodes of cramping. These GI symptoms were similar to that described in Parkinson's and could not be alleviated medically or through dietary adjustment. Their medications included 5 L-DOPA/DDC caps/day and 1-2 Requip before bedtime. Their neurological status at this time was as follows, as determined about 1 hour after an L-DOPA dosing, a time point when they appear to be repleted with dopamine: • Slow walking with shuffling . . . need to squat intermittently • Articulation poor . . . difficult to understand their speech . . . halting • Use of utensils while eating involved slow, awkward movements • Face seemed a bit mask like; unconsciously made chewing movements • Cognitive function (memory, wit) was less than observed 3 months prior • Balance was unsteady • Mood was depressed • Swallowing noted to be difficult at times • Chewing food was slow • Handwriting was small
Began oral dosing with 200 mg capsule of squalamine on Day 1. Capsule was taken in the AM before breakfast, along with L-DOPA. […] 200 mg cap on day 2 provoked a watery diarrhea at 2 hrs after dosing, but discharge subsided by day 3 dosing. On day 13, subsequent dosing was maintained at 200 mg every other day, with some minor degree of nausea. No watery discharge. At about Day 30 the subject was switched to 100 mg every other day, and remained on this regimen for about 9.5 months.

[1] = test system: N-terminally acetylated alpha-synuclein bound to DOPE/DOPS/DOPC vesicles; test: Displacement of alpha-synuclein from negatively charged vesicles (circular dichroism); format: binding
Procedure: Alpha-synuclein was mixed with a preparation of vesicles consisting of DOPE (50%), DOPS (30%), DOPC (20%). The concentration of lipid was 2.4 mM; the concentration of N-terminally acetylated alpha-synuclein was 10 μM. The interaction was followed by circular dichoroism. The concentration of squalamine was increased in 40 μM increments. […] At a ratio of lipid to squalamine of 15:1, full displacement of alpha-synuclein was observed. Addition of squalamine to a solution of alpha-synuclein alone had no effect on the circular dichroism spectrum.

NHE-3 transporter = conditions: electrostatic mechanism, epithelial cell; cited from earlier work
[2] = cited from earlier work; for oral bioavailability: animals (rodents; mice and dogs)
[3] = test system: mucinous adenocarcinoma (Stage 4b colon cancer); test: Oral squalamine in Stage 4b colon cancer, single subject; format: in vivo, human
Procedure: A person presented with abdominal distention, pain, and progressive weight loss of several months duration.
The individual was begun on a total daily dose of 50 mg of squalamine, administered as 25 mg twice daily, as a powder dispersed in apple sauce. Approximately 6 months after initiation of squalamine treatment the individual was seen again at the hospital due to the chance recognition of a mass on their right kidney. The kidney was surgically removed, and during the procedure the peritoneum explored. […] The mass on the kidney was a benign cyst. Treatment with squalamine continued daily for 5 years. […] The subject died […] of a myocardial infarction.

gliobastoma = test: Oral squalamine in brain tumor, single subject; format: in vivo, human
Procedure: A person presented with headache and memory loss. […] The tumor was partially resected surgically, followed by local radiation. The subject was placed on a clinical protocol evaluating everolimus and temozolimide.
In mid October 2013, the subject began squalamine capsules with a 100 mg single dose. […] Squalamine treatment continues.

[4] = test system: intrinsic primary afferent neurons (IPANs) of the colon; test: Patch-clamp of IPANs of the colon, squalamine applied to lumen, intact epithelium; format: cell-based, mouse; conditions: 30 μM, brief puff onto lumen/epithelium
Text: In this experiment the outer adventitial layer of the mouse colon is peeled away exposing the IPANs. Individual IPANs within the myenteric plexus of the wall of the colon are patched using a patch-clamp apparatus. These cells represent the major neuronal population that communicate sensory data from the gut. They synapse with the various nerve networks within the gut that influence muscle and secretory activity, as well as connecting with vagal nerve endings. Administration of squalamine at 30 μM to the lumen (applied via a 50 ms “puff” of solution) leads to a very sustained (10 min) burst of electrical activity (FIG. 3).

squalamine
watery diarrhea, time after dosing (Parkinson's disease; 200 mg cap on day 2): 2 h | GI response to first dose (Parkinson's disease; 200 mg capsule Day 1, AM before breakfast, with L-DOPA): No nausea experienced nor watery discharge; also recorded: Passed several moist stools | Observations (Parkinson's disease; 3 Weeks, 200 mg, from day 13 every other day): Mood seems to have improved; also recorded: Some shaking even after L-DOPA; also recorded: Bowels improved considerably; also recorded: Walking more comfortably, but still uneven; also recorded: Subject feels breathing is easier; also recorded: Articulation much improved | resolution of constipation (Parkinson's disease; oral squalamine 200 mg regimen): Constipation resolved within several weeks | amount of alpha-synuclein membrane bound with increasing squalamine ([1]; lipid 2.4 mM, alpha-synuclein 10 μM, squalamine in 40 μM increments): linear decrease | effect on circular dichroism spectrum of alpha-synuclein alone ([1]; no vesicles): no effect | effect on NHE-3 transporter (NHE-3 transporter): inhibits the NHE-3 transporter | absorption from the gastrointestinal tract ([2]; extensive studies in animals): neither squalamine nor Aminosterol 1436 can be absorbed to any extent | oral bioavailability [2]: low bioavailability | oral bioavailability ([2]; listed as squalamine lactate): poorly bioavailable orally | absorption by the subcutaneous and intraperitoneal routes ([2]; rodents): well absorbed | tumor at surgical exploration of the peritoneum ([3]; 50 mg/day (25 mg twice daily, powder in apple sauce), approximately 6 months): No tumor was visible | recurrence ([3]; daily treatment for 5 years): no recurrence of cancer | decrease of tumor mass by MRI (gliobastoma; 100 mg from mid October 2013, with everolimus and temozolimide protocol, early December 2013): about 20% | residual tumor volume relative to volume after the surgery/radiation (gliobastoma; 100 mg, beginning of February 2014): 60% | duration of burst of electrical activity / action potentials [4]: 10 min
